Results published in the OligoGym collection.
“And” between values parts separate entries of the source, which are not always exact repeats. Equal entries are not always repeated. After the bases stand the sugars from the 5' end (letter, count) and the backbone: PS all phosphorothioate, else s phosphorothioate and o phosphodiester by linkage. Methylation of C is not given here. e = 2'-O-(2-methoxyethyl) (MOE); k = constrained ethyl (cEt); d = 2'-deoxy (DNA)

Target: APOL1
Settings: ASO

| Sequence | target mRNA inhibition (A431, 2 µM) [%] | target mRNA inhibition (A431, 0.0625 µM) | target mRNA inhibition (A431, 0.25 µM) | target mRNA inhibition (A431, 1 µM) | further results |
| --- | --- | --- | --- | --- | --- |
| CAACACATCATTGGGT (sugars kkddddkekekddddd, PS) | 43 |  |  |  |  |
| TCCGTCAATATATTCT (sugars k2 d4 e3 k2 d5, PS) | 96 | 59% | 84% | 93% | target mRNA inhibition (A431, 0.0156 µM): 27% |
| GTGTTATATTTGATCC (sugars kkddddekekeddddd, PS) | 96 |  |  |  |  |
| GCTTTAAACTCAGGTG (sugars k4 d9 k3, PS) |  |  | 76% and 79% | 91% and 89% and 82% | target mRNA inhibition (A431, 0.04 µM): 11% |
| AGTATTGCCAGCTAAG (sugars k3 d4 k3 e1 d5, PS) | 89 |  |  |  |  |
| GCAATGCTGACTTGGC (sugars kddddkekekeddddd, PS) | 45 |  |  |  |  |
| TTGTAAGTGCAACCAA (sugars kkdddddkekeddddd, PS) | 81 |  |  |  |  |
| GAATTATGGAATTGCA (sugars kkkddddkekekdddd, PS) | 61 |  |  |  |  |
| GCTTTAAACTCAGGTG (sugars kdddddkekekddddd, PS) | 92 |  |  |  |  |
| AAGCTTTAAACTCAGG (sugars k2 d4 e3 k2 d5, PS) | 95 | 48% | 76% | 92% | target mRNA inhibition (A431, 0.0156 µM): 15% |
| CTAATTTTCTGACTGT (sugars kkddddekekeddddd, PS) | 90 |  |  |  |  |
| GTATTTCTTGATGTGG (sugars kkddddkekekkdddd, PS) | 52 |  |  |  |  |
| AGCTTTAAACTCAGGT (sugars kkddddkekekkdddd, PS) | 16 |  |  |  |  |
| ATTCTATTAGAGGGCT (sugars k4 d9 k3, PS) |  | 54% and 53% and 55% | 82% and 76% and 86% |  | target mRNA inhibition (A431, 0.0156 µM): 31% |
| TTATGAAATTATTGGT (sugars kkdddddkekeddddd, PS) | 63 |  |  |  |  |
| GTTATGAAATTATTGG (sugars kkkddddkekeddddd, PS) | 93 | 42% | 75% | 85% | target mRNA inhibition (A431, 0.0156 µM): 9% |
| TCCGTCAATATATTCT (sugars kkddddekekeddddd, PS) | 97 | 61% | 86% | 96% | target mRNA inhibition (A431, 0.0156 µM): 33%; target mRNA inhibition (A431, 0.04 µM): 50% |
| TCTATTAGAGGGCTAG (sugars kdddddkekekddddd, PS) | 42 |  |  |  |  |
| TGGTTCAAAAGCAGCA (sugars k2 d4 e3 k2 d5, PS) | 93 | 68% | 85% | 91% | target mRNA inhibition (A431, 0.0156 µM): 41% |

| Sequence | target mRNA inhibition (A431, 2 µM) [%] | target mRNA inhibition (A431, 0.0625 µM) | target mRNA inhibition (A431, 0.25 µM) | target mRNA inhibition (A431, 1 µM) | further results |
| --- | --- | --- | --- | --- | --- |
| GTTCTAACTCTTGGGC (sugars kekddddeekkddddd, PS) | 86 |  |  |  |  |
| GAGTATTGTTTTTGTG (sugars kkddddkekekddddd, PS) | 90 |  |  |  |  |
| GTTCAAAAGCAGCATT (sugars kkdddddkekeddddd, PS) | 89 |  |  |  |  |
| TTTATACCAGTGTCTT (sugars k3 d4 k3 e1 d5, PS) | 80 |  |  |  |  |
| GGAATTATGGAATTGC (sugars kkkddddkekekdddd, PS) | 66 |  |  |  |  |
| GTGTTATATTTGATCC (sugars k3 d4 k3 e1 d5, PS) | 94 | 63% | 84% | 91% | target mRNA inhibition (A431, 0.0156 µM): 32%; target mRNA inhibition (A431, 0.04 µM): 50% |
| TTGTAAGTGCAACCAA (sugars k2 d4 e3 k2 d5, PS) | 83 |  |  |  |  |
| TGTGCTCAGCTATGGA (sugars k4 d9 k3, PS) |  | 41% and 55% | 70% and 74% | 88% and 87% |  |
| ATCAGATGGGTACTTC (sugars kddddkekekeddddd, PS) | 43 |  |  |  |  |
| ATTCCTGGGCAGTTCA (sugars k4 d9 k3, PS) |  | 37% | 43% | 58% |  |
| TCAGATGGGTACTTCT (sugars kkddddkekekkdddd, PS) | 62 |  |  |  |  |
| TTTGTAAGTGCAACCA (sugars kdddddkekekddddd, PS) | 99 | 58% | 86% | 96% | target mRNA inhibition (A431, 0.0156 µM): 24% |
| ACATCATTGGGTTATG (sugars kdddddkekekddddd, PS) | 89 |  |  |  |  |
| AAGTCAGTACAGAGCA (sugars k4 d9 k3, PS) |  | 52% | 79% | 89% |  |
| GTTCTAACTCTTGGGC (sugars kkkddddkekeddddd, PS) | 66 |  |  |  |  |
| TTTGTAAGTGCAACCA (sugars k3 d4 k3 e1 d5, PS) | 56 |  |  |  |  |
| GTTATGAAATTATTGG (sugars kkddddkdkdkddddd, PS) | 71 |  |  |  |  |
| AAGCTTTAAACTCAGG (sugars k3 d4 k3 e1 d5, PS) | 72 |  |  |  |  |
| TATTCTCATGGTACAG (sugars k3 d4 k3 e1 d5, PS) | 79 |  |  |  |  |

| Sequence | target mRNA inhibition (A431, 2 µM) [%] | target mRNA inhibition (A431, 0.0625 µM) | target mRNA inhibition (A431, 0.25 µM) | target mRNA inhibition (A431, 1 µM) | further results |
| --- | --- | --- | --- | --- | --- |
| ACTCAAGTCAGTACAG (sugars k4 d9 k3, PS) |  | 27% | 58% | 77% |  |
| TCACATACTCTCTGGG (sugars k4 d9 k3, PS) |  | 24% | 62% | 77% |  |
| GTTCAAAAGCAGCATT (sugars kkddddkdkdkddddd, PS) | 73 |  |  |  |  |
| TTATATTTGATCCTCA (sugars kkddddkekekddddd, PS) | 91 |  |  |  |  |
| ATTCAGAATTTCCACT (sugars kkddddkekekkdddd, PS) | 57 |  |  |  |  |
| AACATTGAAACACCAG (sugars k4 d9 k3, PS) |  | 35% | 71% | 89% |  |
| TCTCATGGTACAGGAG (sugars kdddddkekekddddd, PS) | 61 |  |  |  |  |
| AACACATCATTGGGTT (sugars kkkddddkekeddddd, PS) | 21 |  |  |  |  |
| GTGTTATATTTGATCC (sugars kkkddddkekekdddd, PS) | 75 |  |  |  |  |
| CAGATGGGTACTTCTG (sugars kdddddkekekddddd, PS) | 44 |  |  |  |  |
| TTTGTAAGTGCAACCA (sugars kkkddddkekekdddd, PS) | 63 |  |  |  |  |
| AATAATGGTAGGTCTA (sugars k4 d9 k3, PS) |  | 41% | 71% | 84% |  |
| TGTTATATTTGATCCT (sugars kkddddkekekkdddd, PS) | 46 |  |  |  |  |
| TCAGATGGGTACTTCT (sugars kkddddekekeddddd, PS) | 91 | 30% | 61% | 86% | target mRNA inhibition (A431, 0.0156 µM): 8% |
| TTATATTTGATCCTCA (sugars k2 d4 e3 k2 d5, PS) | 96 |  |  |  |  |
| TTTGTAAGTGCAACCA (sugars kkddddkekekkdddd, PS) | 87 |  |  |  |  |
| ACATCATTGGGTTATG (sugars kddddkekekeddddd, PS) | 76 |  |  |  |  |
| CAGTTTTGTAAGTGCA (sugars k4 d9 k3, PS) |  | 96% | 98% | 99% |  |
| ACTGTTCTAACTCTTG (sugars k4 d9 k3, PS) |  | 85% | 92% | 95% |  |
